Experimental data from patent US9481674B1, “Dihydropyrrolopyridine inhibitors of ROR-gamma” (Vitae Pharmaceuticals, Inc., priority 2016, dated 2016).

Experiments:
[1] = molecular target: T1, hERG potassium ion channel (Homo sapiens, UniProt Q12809); assay: hERG Assay (Assay 4); type: cell-based; conditions: HEK293 cells stably transfected with hERG cDNA, pH 7.4, comparator compounds, Table 4, compound at 3 μM
T1 construct: expressed in transfected cells; host or cells: HEK293
Method: Compounds of the invention were tested in vitro against the hERG (human ether-à-go-go-related gene) potassium ion channel (a surrogate for IKr, the rapidly activating delayed rectifier cardiac potassium ion channel).
The buffer was HEPES-buffered physiological saline (HB-PS) solution composed of: 137 mM NaCl, 4.0 mM KCl, 1.8 mM CaCl2, 1 mM MgCl2, 10 mM HEPES, 10 mM glucose, pH adjusted to 7.4 with NaOH, and 0.3% DMSO. Chemicals used in solution preparation were purchased from Sigma-Aldrich (St. Louis, Mo.), unless otherwise noted, and were of ACS reagent grade purity or higher.
HEK (human embryonic kidney) 293 cells were stably transfected with hERG cDNA.
For the patch clamp experiment, onset and steady state inhibition of hERG potassium current was measured using a pulse pattern with fixed amplitudes (depolarization: +20 mV for 2 s; repolarization: −50 mV for 2 s) repeated at 10 s intervals from a holding potential of −80 mV. Peak tail current was measured during the 2 s step to −50 mV. A steady state was maintained for at least 30 seconds before applying compound or positive control (cisapride). Peak tail currents were measured until a new steady state was achieved.
Data acquisition and analyses were performed using the suite of pCLAMP® (ver. 8.2) programs (MDS Analytical Technologies, Sunnyvale, Calif.). […]

IL-17A production = assay: Human Whole Blood Assay (Assay 3); type: cell-based; conditions: comparator compounds, Table 4, IL-17A, read-out: 50% Human Whole Blood Assay IC50, nM^B (Assay 3)
Method: Human Whole Blood Assay (Assay 3)
Compounds of the invention were tested in the human whole blood assay to measure their effects on IL-17A production as determined by cytokine secretion into 50% blood/media supernatant. Mixtures of sodium heparinized whole blood (isolated from healthy human donors) and the T cell activator CytoStim, in the presence or absence of compound, were plated in sterilized, tissue culture-treated 24-well plates. Specifically, the mixtures in each well were as follows: (1) 500 μL of whole blood, (2) 250 μL of compound diluted into RPMI-1640 media containing 10% HyClone™ FCS (Thermo Fisher Scientific, Waltham, Mass.), Gibco® Pen/Strep and Gibco® NEAA (Life Technologies, Grand Island, N.Y.), and (3) 250 μL of CytoStim (Miltenyi Biotech, Germany) diluted to a final concentration of 10 μL/mL in complete cell culture medium.
IL-17A cytokine expression was determined using 25 μL of the transferred supernatant diluted with 25 μL of Diluent 43 from the Human IL-17A V-PLEX™ kit (cat. # K151RFD-4, Meso Scale Discovery, Rockville, Md.). The assay was performed according to the manufacturer's instructions using included reagents. The IL-17A V-PLEX™ plates were read using the Meso Scale Discovery Imager (Model 1200).

T1 sequence (Q12809 whole entry): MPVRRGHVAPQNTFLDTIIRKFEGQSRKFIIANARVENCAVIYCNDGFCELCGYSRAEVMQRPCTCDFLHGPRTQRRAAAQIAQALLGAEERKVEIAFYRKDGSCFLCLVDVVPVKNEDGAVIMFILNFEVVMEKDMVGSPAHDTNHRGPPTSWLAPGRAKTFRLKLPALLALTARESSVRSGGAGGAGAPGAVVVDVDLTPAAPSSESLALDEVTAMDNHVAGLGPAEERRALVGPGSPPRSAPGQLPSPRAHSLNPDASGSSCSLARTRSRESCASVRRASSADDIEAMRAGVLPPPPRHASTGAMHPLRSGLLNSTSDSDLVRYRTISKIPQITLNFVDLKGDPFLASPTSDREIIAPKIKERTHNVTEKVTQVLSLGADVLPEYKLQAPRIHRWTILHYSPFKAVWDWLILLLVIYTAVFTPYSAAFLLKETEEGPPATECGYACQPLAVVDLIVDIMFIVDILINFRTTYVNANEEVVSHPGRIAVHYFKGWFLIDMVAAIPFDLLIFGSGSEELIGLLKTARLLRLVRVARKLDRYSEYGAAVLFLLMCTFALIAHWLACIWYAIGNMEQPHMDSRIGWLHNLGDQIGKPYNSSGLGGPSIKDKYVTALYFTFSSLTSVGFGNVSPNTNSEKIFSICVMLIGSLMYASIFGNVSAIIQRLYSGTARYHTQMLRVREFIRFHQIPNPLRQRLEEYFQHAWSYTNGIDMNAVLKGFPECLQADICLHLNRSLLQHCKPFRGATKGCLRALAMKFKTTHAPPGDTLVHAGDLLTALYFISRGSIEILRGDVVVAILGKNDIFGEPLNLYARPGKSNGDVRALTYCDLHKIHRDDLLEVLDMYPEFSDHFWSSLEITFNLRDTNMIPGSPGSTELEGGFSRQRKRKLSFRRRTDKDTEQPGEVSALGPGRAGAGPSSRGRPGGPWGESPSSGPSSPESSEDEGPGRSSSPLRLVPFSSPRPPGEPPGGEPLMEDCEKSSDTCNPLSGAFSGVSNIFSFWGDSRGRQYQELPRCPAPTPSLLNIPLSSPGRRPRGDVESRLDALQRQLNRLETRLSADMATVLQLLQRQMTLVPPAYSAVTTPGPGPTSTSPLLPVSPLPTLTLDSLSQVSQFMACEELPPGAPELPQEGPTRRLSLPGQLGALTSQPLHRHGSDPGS

`CCS(=O)(=O)c1ccc(CNC(=O)c2cnc3c(c2)CN(C[C@H]2CC[C@H](C(F)(F)F)CC2)[C@H]3C(C)C)cc1` was tested. Which inhibition at 3 µM [1] did it give?
The inhibition at 3 µM was 57%.

`CCS(=O)(=O)c1ccc(CNC(=O)c2cnc3c(c2)CN(C[C@H]2CC[C@H](C(F)(F)F)CC2)[C@H]3C(C)C)nc1` [reference compound] was tested. Which IC50 (IL-17A production) did it give?
The IC50 was > 200 nM.

And the inhibition at 3 µM [1]?
Its inhibition at 3 µM is 45.4%.
